Measured values taken from patent US10738049B2, “N-{3-[3-cyclopropyl-5-(2-fluoro-4-iodophenylamino)-6,8-dimethyl-2,4,7-trioxo-3,4,6,7-tetrahydro-2H-pyrido[4,3-D]pyrimidin-1-YL]-phenyl}-cyclopropanecarboxamide dimethyl sulfoxide solvate as an MEK1/2 inhibitor” (R-PHARM JOINT STOCK COMPANY (R-PHARM, JSC), priority 2016, dated 2020).
Values after ≈ are worked out from the molar mass of the structure shown. Like-named read-outs stand apart in the source and are kept apart here.

Columns and labels:
[1] = single-dose oral, mice; cited from earlier work
[2] = Body weight and deaths during treatment in the xenograft study
Experimental: The animals were treated with the test products for 21 days.
When average tumor size reached 100-200 mM^3 the animals were subdivided into experimental groups and treatment with the test drugs was started. The products were administered intragastrically daily, while the control group received the solvent.
Also, health and behavior of animals were monitored, numbers of lethal outcomes and tumor regressions were recorded: Regression=(Vini−Vfin)/Vi×100%,
Measurement of animal weights was carried out 3 times a week.

[3] = system: A375 human melanoma xenograft; assay: Study of efficiency in human melanoma xenograft model; type: in vivo, NMRI nude female mice; details: for T/C / Vavg (average tumor volume): after 21 days of treatment
Experimental: Study of efficiency in human melanoma xenograft model. The study was carried out in ProQinase GmbH Freiburg, Breisacher Str. 117, D-79106 Freiburg, GERMANY.
A375 human melanoma cells were cultivated in vials with DMEM medium with addition of 10% FBS in a humid atmosphere containing 95% of air and 5% of CO2 at 37° C. Cancer cells were passaged to animals after an adaptation period. For that end the cells were collected using TrypLE Express (Invitrogen), washed and suspended in sterile PBS to the final concentration of 3×10^7 cells/mL. This cell suspension was injected subcutaneously (SC) in mice left flanks (3×10^6 cells or 100 μL per mouse).
Measurement of subcutaneously implanted tumors was carried out 2 times a week starting from the day of cells introduction. Tumor volume (mm^3) was determined by the equation: V=L×W^2/2,
where L corresponds to maximum and W to minimum tumor diameter (mm). The measurements were carried out using a slide caliper.
The study included calculation of tumor growth inhibition values: T/C=Vexp/Vctrl×100%,
Vctrl=average tumor volume in the control group;
Vexp=average tumor volume in the experimental group.
Vini=initial tumor volume at the start of treatment;
Vfin=tumor volume at the end of treatment.

[4] = biological target: T1, MEK1 (Homo sapiens, UniProt Q02750); assay: MEK1 kinase activity, Z'-LYTE screening platform; type: biochemical; details: 100 μM ATP, 1% DMSO
T1 construct: purchased Life Technologies
T1 sequence (Q02750 whole entry): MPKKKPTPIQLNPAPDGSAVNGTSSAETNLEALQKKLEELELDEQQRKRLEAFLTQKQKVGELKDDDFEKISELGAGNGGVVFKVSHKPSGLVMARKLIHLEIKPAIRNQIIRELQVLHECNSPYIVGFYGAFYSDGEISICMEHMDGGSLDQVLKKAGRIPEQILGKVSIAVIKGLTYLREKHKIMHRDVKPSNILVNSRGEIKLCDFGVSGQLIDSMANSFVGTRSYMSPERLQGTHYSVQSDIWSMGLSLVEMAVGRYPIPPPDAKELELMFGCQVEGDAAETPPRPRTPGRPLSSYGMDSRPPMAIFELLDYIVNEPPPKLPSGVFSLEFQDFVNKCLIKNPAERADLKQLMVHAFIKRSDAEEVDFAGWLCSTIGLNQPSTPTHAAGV

[5] = Determination of thermodynamic solubility; type: physicochemical; details: for solubility at 24 h: 25 °C, thermodynamic from solid
Experimental: Use additional quantities of the substances until the solution becomes turbid. Incubate vials with the solution for 24 h at 25° C. with mixing to achieve equilibrium between saturated solution and precipitate. Upon equilibration filter 200 μL of the solution (in duplicate) through a 96-well filter plate (Millipore) to separate the precipitate. Determine concentrations of the compounds in the filtrate by spectrophotometry using standard calibration curve. Carry out measurement of optical absorption spectrum of the substance and plot calibration curve at the selected wavelength (usually corresponding to the substance absorption maximum λmax). Calculate concentration of the substance in the filtrate (i.e., solubility) by the following equation: Solubility=(ODλmax filtrate−ODλmax blank)/Slope×1.67×Filtrate dilution,
ODλmax filtrate=absorbance of the filtrate:
ODλmax blank=absorbance of the blank solution without the substance;
Slope=slope of the calibration curve;
1.67=dilution factor for the filtrate in acetonitrile;
Filtrate dilution=dilution factor for the filtrate in the buffer.

[6] = cited from earlier work
[7] = 3.0 mg/kg intragastrically daily
[8] = 0.3 mg/kg intragastrically daily
[9] = 1.0 mg/kg intragastrically daily
[10] = 10.0 mg/kg intragastrically daily
[11] = 4% dimethyl sulfoxide and 96% corn oil, oil or lipid, 4% dimethyl sulfoxide, 96% corn oil, read-out: Solubility in a mixture of 4% sulfoxide and 96% corn oil
[12] = dimethyl sulfoxide, organic solvent or mixture, read-out: Solubility in dimethyl sulfoxide
[13] = water, water, read-out: Solubility in water

CC(=O)Nc1cccc(-n2c(=O)n(C3CC3)c(=O)c3c(Nc4ccc(I)cc4F)n(C)c(=O)c(C)c32)c1 [Mekinist, Trametinib dimethyl sulfoxide, reference compound]
LD50 [1]: > 2000 mg/kg
Animal deaths ([2]; 3 mg/kg intragastric for 9 days): two
Animals with tumor regression ([3]; 3 mg/kg intragastric): 100 % animals
T/C [3, 7]: 1.0%
Vavg (average tumor volume) [3, 7]: 21.1 mm^3

Cc1c(=O)n(C)c(Nc2ccc(I)cc2F)c2c(=O)n(C3CC3)c(=O)n(-c3cccc(NC(=O)C4CC4)c3)c12 [Compound of formula 1, N-{3-[3-cyclopropyl-5-(2-fluoro-4-iodophenylamino)-6,8-dimethyl-2,4,7-trioxo-3,4,6,7-tetrahydro-2H-pyrido[4,3-d]pyrimidin-1-yl]-phenyl}-cyclopropanecarboxamide dimethyl sulfoxide solvate]
Animal body weight loss as compared to the treatment start date ([2]; 10 mg/kg, throughout the study): not more than 20%
Animal deaths ([2]; any of the doses studied (up to 10 mg/kg)): did not cause animal deaths
IC50 [4]: 8.02 nM
Effect on tumor growth ([3]; 0.3 mg/kg intragastric): no effect on tumor growth
T/C [3, 8]: 39.5%
Vavg (average tumor volume) [3, 8]: 834.3 mm^3
Animals with tumor regression ([3]; 1 mg/kg): three of eight
T/C [3, 9]: 6.7%
Vavg (average tumor volume) [3, 9]: 140.5 mm^3
Animals with tumor regression ([3]; 3 mg/kg): 7/8
T/C [3, 7]: 4.0%
Vavg (average tumor volume) [3, 7]: 84.5 mm^3
Animals with tumor regression ([3]; 10 mg/kg): 8/8
T/C [3, 10]: 1.2%
Vavg (average tumor volume) [3, 10]: 26.1 mm^3
solubility at 24 h [5, 11]: 7000 µg/mL
solubility at 24 h [5, 12]: 47000 µg/mL
Solubility in dimethyl sulfoxide relative to Trametinib ([5]; dimethyl sulfoxide, ratio to Trametinib): more than 2 times
solubility at 24 h [5, 13]: < 1000 µg/mL

CC(=O)Nc1cccc(-n2c(=O)n(C3CC3)c(=O)c3c(Nc4ccc(I)cc4F)n(C)c(=O)c(C)c32)c1 [Trametinib, reference compound]
Solubility in aqueous media ([6]; between pH=2 and pH=8): practically insoluble
Solubility in organic solvents ([6]; organic solvents including highly polar ones): very slightly soluble
solubility at 24 h [5, 11]: 3000 µg/mL (≈ 4.87 mM)
solubility at 24 h [5, 12]: 22000 µg/mL (≈ 35.7 mM)
solubility at 24 h [5, 13]: < 1000 µg/mL
